{
  "source": "patent US12275684B2",
  "about": "“Methods for making and using endoxifen” (Atossa Therapeutics, Inc., priority 2017, dated 2025)",
  "experiment": "Placebo controlled, dose escalation pharmacokinetic study of oral (Z)-Endoxifen capsules (serum endoxifen; incl. accumulation ratios and dose linearity)",
  "format": "in vivo, human",
  "details": "female, human, serum",
  "text": "An objective of the study was to assess the safety and tolerability of oral (Z)-Endoxifen when administered […] orally as a capsule to healthy female volunteers. A secondary objective was to assess the pharmacokinetics of multiple doses of oral (Z)-Endoxifen in the subjects.\nGenerally, healthy female volunteers aged ≥18 years and ≤65 years were enrolled. 24 participants were enrolled in 3 cohorts and will be administered study drug orally. Three dose levels of orally administered (Z)-Endoxifen were investigated in 3 cohorts. In each cohort participants were randomized to receive an oral (Z)-Endoxifen or placebo in a blinded fashion. Enteric-resistant capsules used in the study were designed as delayed release capsules to resist rupture for at least 30 minutes, but typically, for about 2 hours, under gastric conditions and then open fully in intestinal fluid (DRCaps; Capsugel, a Lonza Company, USA). Enteric-resistant (Swedish Orange size Zero (0); Capsugel, USA) DRCaps capsules manually filled with 1, 2 or 4 mg of (Z)-endoxifen neat in compliance with GMP requirements were used. Placebo capsules contained microcrystalline cellulose an inert common capsule and tablet excipient.\nEach cohort enrolled 8 participants, with 6 participants receiving (Z)-Endoxifen 1 mg capsules orally at 1 mg (Cohort 1), 2 mg (Cohort 2) or 4 mg (Cohort 3) doses and 2 participants receiving matching placebo capsules. In Cohort 1 (Dose Level=1 mg) two participants (sentinels) were dosed 24 hours prior to the remaining participants. One sentinel was dosed with (Z)-Endoxifen and the other with placebo. The remaining six participants in Cohort 1 were dosed as no safety concerns were identified in the sentinel participants. The non-sentinel participants in Cohort 1 were admitted to the clinical research facility at least one day later than the sentinels. There were no sentinels in Cohorts 2 and 3.\nParticipant engagement in this study was for a period of 56 days. These included a 28 day screening period, and a 7 day post treatment period for Pharmacokinetic (PK) sampling. There were two confinement periods, one at the beginning and one at the end of the dosing periods. Participants were confined to the clinical facility on Days-1 through to Day 2 and Days 21 and 22. If participants were to experience any clinically significant adverse events during the study, they would have been required to remain in the clinical facility for further observation at the discretion of the Principal Investigator (PI).\nHealthy female volunteers were screened within 28 days prior to commencement of dosing. Participants were admitted to the clinical facility on Day-1 for up to 3 days. The first dose of (Z)-Endoxifen or placebo capsules was administered on Day 1. Following completion of all safety assessments and sampling for PK analyses, participants were discharged from the clinical facility on Day 2. The first dose on Day 1 was followed by a 6-day treatment free period (Days 2-7). Each participant returned to the clinical facility for PK blood draws and safety assessments during the treatment free period on study Days 4 and 6. On Day 8 participants commenced daily administration of (Z)-Endoxifen capsules or placebo capsules for 14 consecutive days (Days 8-21). Participants were supplied with study drug capsules and asked to self administer daily. Participants visited the clinical facility on Days 11, 14 and 17, prior to dose administration, for PK blood draws and safety assessments. On the morning of Day 21 each participant returned to the clinical facility prior to dose administration and were confined to the facility until Day 22 to allow for the collection of PK blood draws and safety assessments. The Day 21 dose was the last administration of study drug. Participants were discharged from the clinical facility on Day 22 and returned for PK blood draws and safety assessments on study Days 24, 26, and 28. […]",
  "note": "Like-named read-outs stand apart in the source and are kept apart here.",
  "data": [
    {"compound": "CC/C(=C(\\c1ccc(O)cc1)c1ccc(OCCNC)cc1)c1ccccc1", "note": "[(Z)-Endoxifen, (Z)-4-(1-(4-(2-(methylamino)ethoxy)phenyl)-2-phenylbut-1-enyl) phenol]", "values": [
      {"measurement": "AUC(0-inf)", "setting": "oral, 2 mg, Day 1, 2 mg, N 6, read-out: AUC0-inf, Mean", "value": 1110, "unit": "ng·h/mL"},
      {"measurement": "AUC(0-inf)", "setting": "oral, 2 mg, Day 1, 2 mg, N 6, read-out: AUC0-inf, Median", "value": 1100, "unit": "ng·h/mL"},
      {"measurement": "AUC(0-t)", "setting": "oral, 2 mg, Day 1, 2 mg, N 6, read-out: AUC24hr, GeoMean", "value": 301, "unit": "ng·h/mL"},
      {"measurement": "AUC(0-t)", "setting": "oral, 2 mg, Day 1, 2 mg, N 6, read-out: AUC24hr, Mean", "value": 305, "unit": "ng·h/mL"},
      {"measurement": "AUC(0-t)", "setting": "oral, 2 mg, Day 1, 2 mg, N 6, read-out: AUC24hr, Median", "value": 303, "unit": "ng·h/mL"},
      {"measurement": "AUC(0-t)", "setting": "oral, 2 mg, Day 1, 2 mg, N 6, read-out: AUCTlast, GeoMean", "value": 862, "unit": "ng·h/mL"},
      {"measurement": "AUC(0-t)", "setting": "oral, 2 mg, Day 1, 2 mg, N 6, read-out: AUCTlast, Mean", "value": 889, "unit": "ng·h/mL"},
      {"measurement": "AUC(0-t)", "setting": "oral, 2 mg, Day 1, 2 mg, N 6, read-out: AUCTlast, Median", "value": 955, "unit": "ng·h/mL"},
      {"measurement": "Cmax", "setting": "oral, 2 mg, Day 1, 2 mg, N 6, read-out: Cmax, GeoMean", "value": 17.3, "unit": "ng/mL"},
      {"measurement": "Cmax", "setting": "oral, 2 mg, Day 1, 2 mg, N 6, read-out: Cmax, Mean", "value": 17.7, "unit": "ng/mL"},
      {"measurement": "Cmax", "setting": "oral, 2 mg, Day 1, 2 mg, N 6, read-out: Cmax, Median", "value": 17.5, "unit": "ng/mL"},
      {"measurement": "Tmax", "setting": "oral, 2 mg, Day 1, 2 mg, N 6, read-out: Tmax, GeoMean", "value": 4.19, "unit": "h"},
      {"measurement": "Tmax", "setting": "oral, 2 mg, Day 1, 2 mg, N 6, read-out: Tmax, Mean", "value": 4.28, "unit": "h"},
      {"measurement": "Tmax", "setting": "oral, 2 mg, Day 1, 2 mg, N 6, read-out: Tmax, Median", "value": 4.17, "unit": "h"},
      {"measurement": "Vd/F", "setting": "oral, 2 mg, Day 1, 2 mg, N 6, read-out: Vz/F, GeoMean", "value": 127, "unit": "L"},
      {"measurement": "Vd/F", "setting": "oral, 2 mg, Day 1, 2 mg, N 6, read-out: Vz/F, Mean", "value": 131, "unit": "L"},
      {"measurement": "Vd/F", "setting": "oral, 2 mg, Day 1, 2 mg, N 6, read-out: Vz/F, Median", "value": 118, "unit": "L"},
      {"measurement": "half-life", "setting": "oral, 1-4 mg, read-out: apparent terminal half life (t½) by dose level", "value": "42 to 53", "unit": "h"},
      {"measurement": "Tmax", "setting": "oral, Days 1 and 21, 1-4 mg, read-out: Median Tmax by dose level", "value": "4 to 8", "unit": "h"},
      {"measurement": "AUC(0-inf)", "setting": "oral, dosing range of 1 mg to 4 mg, read-out: AUC0-inf", "value": "400 to 6000", "unit": "ng·h/mL"},
      {"measurement": "AUC(0-inf)", "setting": "po, 1 mg, Dose: 1 mg oral, Day 1, read-out: AUC(0-inf), individual subjects", "value": 593, "unit": "ng·h/mL"},
      {"measurement": "AUC(0-t)", "setting": "po, 1 mg/day, Day 1, 1 mg/day oral (n = 5), read-out: AUC24 hr, Arithmetic Mean", "value": 158, "unit": "ng·h/mL"},
      {"measurement": "Cmax", "setting": "po, 1 mg/day, Day 1, 1 mg/day oral (n = 5), read-out: Cmax, Arithmetic Mean", "value": 9.6, "unit": "ng/mL"},
      {"measurement": "Tmax", "setting": "po, 1 mg/day, Day 1, 1 mg/day oral (n = 5), read-out: Median Tmax", "value": 6, "unit": "h"},
      {"measurement": "Tmax", "setting": "po, 1 mg/day, Day 1, 1 mg/day oral (n = 5), read-out: Tmax (Range)", "value": "2 to 8.08", "unit": "h"},
      {"measurement": "half-life", "setting": "po, 1 mg/day, Day 1, 1 mg/day oral (n = 5), read-out: t1/2, Arithmetic Mean (converted)", "value": 41.1, "unit": "h"},
      {"measurement": "AUC(0-t)", "setting": "po, 1 mg/day, Day 21, 1 mg/day oral (n = 5), read-out: AUC24 hr, Arithmetic Mean", "value": 458, "unit": "ng·h/mL"},
      {"measurement": "Cmax", "setting": "po, 1 mg/day, Day 21, 1 mg/day oral (n = 5), read-out: Cmax, Arithmetic Mean", "value": 24.6, "unit": "ng/mL"},
      {"measurement": "Tmax", "setting": "po, 1 mg/day, Day 21, 1 mg/day oral (n = 5), read-out: Median Tmax", "value": 8, "unit": "h"},
      {"measurement": "Tmax", "setting": "po, 1 mg/day, Day 21, 1 mg/day oral (n = 5), read-out: Tmax (Range)", "value": "4 to 6.05", "unit": "h"},
      {"measurement": "half-life", "setting": "po, 1 mg/day, Day 21, 1 mg/day oral (n = 5), read-out: t1/2, Arithmetic Mean (converted)", "value": 52.6, "unit": "h"},
      {"measurement": "AUC(0-t)", "setting": "po, 2 mg, Day 21, dose 2 mg oral once daily, GeoMean, N 6, read-out: AUC24hr", "value": 897, "unit": "ng·h/mL"},
      {"measurement": "Cmax", "setting": "po, 2 mg, Day 21, dose 2 mg oral once daily, GeoMean, N 6, read-out: Cmax", "value": 48.8, "unit": "ng/mL"},
      {"measurement": "Tmax", "setting": "po, 2 mg, Day 21, dose 2 mg oral once daily, GeoMean, N 6, read-out: Tmax", "value": 3.64, "unit": "h"},
      {"measurement": "half-life", "setting": "po, 2 mg, Day 21, dose 2 mg oral once daily, GeoMean, N 6, read-out: apparent terminal half life (t½) (converted)", "value": 42.8, "unit": "h"},
      {"measurement": "Vd/F", "setting": "po, 2 mg, Day 21, dose 2 mg oral once daily, GeoMean, N 6, read-out: volume of distribution (Vd/F)", "value": 138, "unit": "L"},
      {"measurement": "AUC(0-t)", "setting": "po, 2 mg, Day 21, dose 2 mg oral once daily, Mean, N 6, read-out: AUC24hr", "value": 911, "unit": "ng·h/mL"},
      {"measurement": "Cmax", "setting": "po, 2 mg, Day 21, dose 2 mg oral once daily, Mean, N 6, read-out: Cmax", "value": 50, "unit": "ng/mL"},
      {"measurement": "Tmax", "setting": "po, 2 mg, Day 21, dose 2 mg oral once daily, Mean, N 6, read-out: Tmax", "value": 4.01, "unit": "h"},
      {"measurement": "half-life", "setting": "po, 2 mg, Day 21, dose 2 mg oral once daily, Mean, N 6, read-out: apparent terminal half life (t½) (converted)", "value": 43.4, "unit": "h"},
      {"measurement": "Vd/F", "setting": "po, 2 mg, Day 21, dose 2 mg oral once daily, Mean, N 6, read-out: volume of distribution (Vd/F)", "value": 139, "unit": "L"},
      {"measurement": "AUC(0-t)", "setting": "po, 2 mg, Day 21, dose 2 mg oral once daily, Median, N 6, read-out: AUC24hr", "value": 910, "unit": "ng·h/mL"},
      {"measurement": "Cmax", "setting": "po, 2 mg, Day 21, dose 2 mg oral once daily, Median, N 6, read-out: Cmax", "value": 51, "unit": "ng/mL"},
      {"measurement": "Tmax", "setting": "po, 2 mg, Day 21, dose 2 mg oral once daily, Median, N 6, read-out: Tmax", "value": 4, "unit": "h"},
      {"measurement": "half-life", "setting": "po, 2 mg, Day 21, dose 2 mg oral once daily, Median, N 6, read-out: apparent terminal half life (t½) (converted)", "value": 45.7, "unit": "h"},
      {"measurement": "Vd/F", "setting": "po, 2 mg, Day 21, dose 2 mg oral once daily, Median, N 6, read-out: volume of distribution (Vd/F)", "value": 132, "unit": "L"},
      {"measurement": "AUC(0-inf)", "setting": "po, 2 mg, Dose: 2 mg oral, Day 1, read-out: AUC(0-inf), individual subjects", "value": 1010, "unit": "ng·h/mL"},
      {"measurement": "AUC(0-t)", "setting": "po, 2 mg/day, Day 1, 2 mg/day oral (n = 6), read-out: AUC24 hr, Arithmetic Mean", "value": 305, "unit": "ng·h/mL"},
      {"measurement": "Cmax", "setting": "po, 2 mg/day, Day 1, 2 mg/day oral (n = 6), read-out: Cmax, Arithmetic Mean", "value": 17.7, "unit": "ng/mL"},
      {"measurement": "Tmax", "setting": "po, 2 mg/day, Day 1, 2 mg/day oral (n = 6), read-out: Median Tmax", "value": 4.17, "unit": "h"},
      {"measurement": "Tmax", "setting": "po, 2 mg/day, Day 1, 2 mg/day oral (n = 6), read-out: Tmax (Range)", "value": "3 to 6", "unit": "h"},
      {"measurement": "half-life", "setting": "po, 2 mg/day, Day 1, 2 mg/day oral (n = 6), read-out: t1/2, Arithmetic Mean (converted)", "value": 49, "unit": "h"}
    ]}
  ]
}
